Assay results as given in patent US12161669B2, “Compositions and methods for cell targeting therapies” (UMC UTRECHT HOLDING B.V., priority 2017, dated 2024).

Columns and labels:
Daudi = assay: IFNγ ELISA of γ9δ2T cell clones co-incubated with Daudi; format: cell-based
Protocol: PBMCs were stained with monoclonal antibody (mAb) to Vδ2 (Vδ2-FITC clone B6). The mAb-positive fraction was either sorted in bulk, expanded on REP, and thereafter cloned by limiting dilution (donor A) or single cell-sorted using FACS sort with collection of single cells in 96 well plates (donors B, C). All FACS sorts were performed on ARIAII (BD). Eight to twelve rounds of expansion on REP preceded functional testing. As soon as the cells expanded to sufficient numbers functional testing was performed: 5*10^4 T cells were incubated overnight together with target cells at 1:1 E:T ratio in DMEM supplemented with 10% FCS and 1% pen/strep, without or in the presence of 100 uM Pamidronate Disodium salt (Calbiochem Cat #506600), supernatants were harvested the day after, and IFNγ concentration was measured using ELISA (eBioscience Ready-Set-Go! ELISA kit, Invitrogen Cat #88731688).
In order to assess on a broader range the impact of individual γ9δ2TCR on the functional activity of individual γ92δT cell clones γδ T cell clones were isolated by limiting dilution or FACS sorting. In vitro antitumor activity was determined by IFNγ production against the tumor cell line Daudi. Substantial antitumor functional heterogeneity was observed among the γ9δ2T cell clones (N=57) isolated from 4 healthy donors, with approximately 60% of the clones being reactive to the tumor cell line Daudi (FIG. 13A), when choosing a cut-off of 30 pg/ml for reliable measurement of IFNγ concentration. Bisphopshonates such as pamidronate (PAM) can enhance activity of γ9δ2T cells through induction of CD277J, facilitated by RhoB and sensed by the γ9δ2TCR. In the presence of 100 μM PAM the reactivity of investigated γ9δ2T cell clones was on average 10-fold enhanced (range 0.7-37.3; median 8.1) with >95% of the clones showing reactivity above the threshold when PAM was added (FIG. 13A). In order to assess whether activity profiles where exclusively observed for Daudi cells or also valid for other targets, the cell line HEK293FT, an additional well-characterized γδT cell target, was co-incubated with the isolated γδT cell clones. HEK293FT cell line elicited much lower cytokine secretion in the absence of PAM with only approximately 30% of γ9δ2T cell clones secreting IFNγ above cut-off (FIG. 13B).

RhoA = assay: Intracellular RhoA distribution by confocal microscopy in EBV-LCL 48; format: cell-based; conditions: EBV-LCL 48, with or without ABP

For `NCCC(O)(P(=O)(O)O)P(=O)(O)O` [pamidronate], the “clones showing reactivity above the threshold” value (Daudi; 100 μM PAM added, cut-off 30 pg/ml IFNγ) was over 95%, the “enhancement of reactivity of γ9δ2T cell clones, average” value (Daudi; 100 μM PAM vs no PAM) was 10 fold and the “enhancement of reactivity of γ9δ2T cell clones, median” value (Daudi; 100 μM PAM vs no PAM) was 8.1 fold. For the same compound, the “enhancement of reactivity of γ9δ2T cell clones, range” value (Daudi; 100 μM PAM vs no PAM) was 0.7-37.3 fold and the “intracellular distribution of RhoA” value (RhoA) was “did not change”.
